According to patent US10881709B2, “Immune system modulators and compositions” (Canimguide Therapeutics AB, priority 2015, dated 2021):
Peptide text beside a SMILES is read from it.

Legend:
K562 target cells = experiment: NK-cell cytotoxicity (NKTEST, flow cytometry); type: cell-based, human; details: 10 ug/ml peptide, effector:target 40:1, four donors
Experimental: The NK-cell cytotoxic activity of blood mononuclear cells from four healthy donors was tested. Mononuclear cells were separated by standard Ficoll-Paque® Plus (Pharmacia AB, Sweden) density gradient centrifugation from heparinized blood obtained from healthy donors. NK cell cytotoxic activity of the mononuclear cells was then tested using a commercial kit (NKTEST, Orpegen Pharma GmblI, Heidelberg, Germany) following the manufacturers protocol. Briefly, the kit contains cryopreserved, NK-sensitive target cells (K562) labeled with a lipophilic green fluorescent membrane dye, which enables discrimination of effector and target cells. After incubation with effector cells, killed target cells are identified by a DNA-stain, which penetrates and specifically stain the nuclei of dead target cells. This way the percentage of killed targets can be determined by flow cytometry. The mononuclear cells were preincubated for 30 min at 37° C. with the indicated peptides (peptides have been described previously) at 10 ug/ml. Target cells were then added, giving an effector:target ratio of 40:1, and the cell mixture incubated at 37° C. for 3-4 hours. Samples were analysed on a FACSCalibur (BD® Biosciences, San Jose, Calif.).

Solubility = type: physicochemical
P3028 = P3028 (Homo sapiens, UniProt P02768); experiment: Binding of His-tag labeled P3028 to looped (cyclic) peptides on chips, ELISA; details: positional scan of looped 6-meres
Experimental: In order to identify cyclic peptides that bind to P3028, all possible variants of di- and tripeptides were synthesized on chips and the binding of the His-tag labeled P 3028 was analyzed using the ELISA-technique. Based on the identified binding motifs, looped 6-meres were produced and tested. […] Positional scans were performed in each position of the lead cyclic peptide was replaced with each of the other 19 L-amino acids. Binding of each of the substituted peptides was tested, and peptide sequences with even better binding capacity than that of the lead peptide were identified.

PBMCs = experiment: IL-2 induced proliferation of PBMCs, 3H-thymidine incorporation (human ex vivo model); type: cell-based; details: for inhibition of IL-2 induced proliferation: PBMCs from healthy control samples, 7 days, 3H-thymidine; for neutralization of the inhibitory effect of P3028 on IL-2 induced proliferation: fragments alone or in combination
Experimental: 100 μl of RPMI1640 supplemented with 200 IU/ml penicillin, […] streptomycin, 4 mM L-glutamine (all from Sigma® Chemical Co. MO, US) and 20% heat-inactivated human serum (autologous or from cancer patients) were added to uncoated, HSA or HSA/IgG coated tissue culture microtiter plates. PBMC, isolated from healthy individuals or patients with metastatic renal cell carcinoma, were diluted in RPMI/2% HSA at a concentration of 5×10^5/ml and 100 μl were added to the microtiter wells. Interleukin-2 (IL-2, Proleukin®, Chiron®, NL), at a final concentration of 120 IU/well, was added to some wells. Cells were cultured for 7 days in a humidified, 5% CO2-atmosphere at 37° C. Proliferation was assayed by incorporation of 1.6 μCi/well of [^3H]-thymidine (Amersham® Int., UK) during the last 18 hrs. Mean values of dpm (disintegrations per minute) of triplicates were used for the calculations.
Cultures for IL-2 induced proliferation was set up with PBMC from healthy donors and autologous serum as described above with the exception that PBMC were first pre-incubated for 30 min at room temperature with the indicated albumin peptides at a concentration of 10 μg/ml.
Round-bottomed, 96-well tissue culture plates (Costar®, Corning® Inc. NY, US) were pre-coated with HSA only or HSA and pooled human IgG for intravenous injection (Gammagard®, Baxter AS, DK) as follows; HSA was diluted in RPMI1640 without supplements to a concentration of 10 mg/ml. A mixture of 1 mg/ml IgG in a solution of 9 mg/ml HSA in RPMI (HSA/IgG) was also prepared. 200 μl of HSA or HSA/IgG were then added to each well of the plate. The plates were incubated at 4° C. for 30 minutes after which the wells were washed twice with 200 μl of RPMI1640. The coated plates were used immediately. 100 μl of RPMI1640 supplemented with 200 IU/ml penicillin, […] streptomycin, 4 mM L-glutamine (all from Sigma® Chemical Co. MO, US) and 20% heat-inactivated human serum (autologous) were added to the HSA or HSA/IgG coated tissue culture microtiter wells. PBMC, isolated from healthy individuals, were diluted in RPMI/2% HSA and peptides were added directly to the cell suspension at a concentration of 10 μg/ml. One hundred μl of this cell suspension (5×10^4 lymphocytes) was then added per well providing a final concentration of 5 μg/ml peptide per well. IL-2 (Proleukin®, Chiron®, NL), at a final concentration of 120 IU/well, was added to the wells. Cells were cultured for 7 days in a humidified, 5% CO2-atmosphere at 37° C. Proliferation was assayed by incorporation of 1.6 μCi/well of [^3H]-thymidine (Amersham® Int., UK) during the last 18 hrs. Mean values of dpm (disintegrations per minute) of triplicates were used for the calculations.
The model included PBMCs isolated from venous blood samples from healthy blood donors (control samples) or cancer patients. One hundred pI of culture medium (RPMI 1640 Dutch's modification (Gibco®, InVitrogenAB®, Stockholm, Sweden) supplemented with 200 IV/ml penicillin, 200 ug/ml streptomycin, 4 mM L-glutamine (all from Sigma® Chemical Co. MO, US) and 20% heat-inactivated human serum) were added to roundbottomed, 96-well tissue culture plates (Costar®, Corning® Inc. NY, US). […] Control sample wells without IL-2 was set up in parallel. […]
The effect of different peptides on IL-2 induced proliferation was analyzed in the human ex vivo model, using PBMCs from healthy control samples. […] Proliferation was measured as incorporation of ^3H-thymidine during the final 18 hours. […]

P3028, dHSA, HSA = experiment: ELISA and competition ELISA with rabbit anti-3028 antiserum; type: binding, human; details: competition ELISA, serum L
Experimental: Duplicate wells in Hi-binding microtitre plates (Costar® 2592, Corning® Inc, NY, USA) were coated with 100 μl of P3028 (10 ug/ml), denatured HSA (denHSA, 4.5 ug/ml) or control HSA sample (4.5 ug/ml). All coating reagent were diluted in PBS and incubated at room temperature overnight. The wells where then washed with wash buffer consisting of 0.05% Tween-20 in PBS (Sigma®) followed by blocking for 1 hr at 25° C. with 200 μl 0.5% gelatin prepared from bovine skin (Sigma®) in PBS followed by washing in wash buffer. […] Biotinylated horse anti-rabbit/mouse IgG (Vectastain® ELITE, Vector® Laboratories Inc, CA, USA) diluted 1/5 in ELISA reagent diluent was then added and the plates incubated for 1 h at 25° C. followed by washing. Next, HRP-conjugated streptavidin (R&D Systems® Europe, Ltd, UK) was added. Finally, after washing in wash buffer, substrate solution consisting of H2O2 and tetramethylbenzidine (R&D Systems®) was added. The reaction was stopped with 1M H2504 and the optical density measured as absorbance (A) at dual wavelengths, 450 nm and 570 nm, with a Multiscan® EX microplate reader (Labsystems).
Two antisera, R and L, from two different rabbits were tested for their ability to bind human serum and denatured Human Serum Albumin (dHSA). […] No substantial binding was detected for wells with no coat 202. […]

With CC(C)C[C@H](NC(=O)[C@H](C)NC(=O)[C@H](CC(N)=O)NC(=O)[C@H](CCC(N)=O)NC(=O)[C@H](Cc1ccccc1)NC(=O)[C@H](CCCCN)NC(=O)[C@H](Cc1ccc(O)cc1)NC(=O)[C@H](CCC(=O)O)NC(=O)CNC(=O)[C@H](CC(C)C)NC(=O)[C@H](CCC(N)=O)NC(=O)[C@H](CCC(=O)O)NC(=O)[C@H](Cc1ccccc1)NC(=O)[C@H](CC(C)C)NC(=O)[C@@H](N)CCC(=O)O)C(=O)N[C@@H](CC(C)C)C(=O)N[C@H](C(=O)N[C@@H](CCCNC(=N)N)C(=O)O)C(C)C [P3027] (H-ELFEQLGEYKFQNALLVR-OH; N-terminus and C-terminus assumed) the “effect on NK-cell cytotoxicity (percent specific lysis of K562)” value (K562 target cells) was “Inhibition was not seen”.

In the case of CC(C)C[C@H](NC(=O)[C@H](CO)NC(=O)[C@H](CC(C)C)NC(=O)[C@H](Cc1ccc(O)cc1)NC(=O)[C@@H](NC(=O)[C@H](Cc1ccccc1)NC(=O)[C@H](Cc1ccccc1)NC(=O)[C@@H](NC(=O)[C@H](CC(=O)O)NC(=O)[C@H](CC(C)C)NC(=O)[C@H](CCCCN)NC(=O)[C@@H](N)CCCCN)[C@@H](C)O)C(C)C)C(=O)N[C@@H](Cc1ccccc1)C(=O)N[C@H](C(=O)N[C@@H](CCC(=O)O)C(=O)N[C@@H](CCCNC(=N)N)C(=O)O)[C@@H](C)O [SEQ ID NO: 552] (H-KKLDTFFVYLSLFTER-OH; N-terminus and C-terminus assumed), the solubility (Solubility) is reported as “soluble in aqueous solution”.

For CLRLIVMCG [SEQ ID NO: 266], the “binding of cyclic peptides to P3028” value (P3028) was “highest affinity”.

With CLRLNVFCG [SEQ ID NO: 265] the “binding of cyclic peptides to P3028” value (P3028) was “highest affinity”.

For “EPQNLIK (listed as Homo sapiens) [P3218]”, the “inhibition of IL-2 induced proliferation” value (PBMCs) was “much weaker”, the “neutralization of the inhibitory effect of P3028 on IL-2 induced proliferation” value (PBMCs) was “do not inhibit” and the “binding of rabbit anti-P3028 serum antibodies to P3028 fragments” value (P3028, dHSA, HSA) was “not”.

For “VFDEFKPLVE (listed as Homo sapiens) [P3325]”, the “inhibition of IL-2 induced proliferation” value (PBMCs) was “much weaker”, the “neutralization of the inhibitory effect of P3028 on IL-2 induced proliferation” value (PBMCs) was “do not inhibit” and the “binding of rabbit anti-P3028 serum antibodies to P3028 fragments” value (P3028, dHSA, HSA) was “bound preferentially”.
